Source: ChEMBL document CHEMBL1201862, “PubChem BioAssay data set” (2004)
Calls of active or inactive are those of the source.

Assays:
BJ [1] = assay: cells; type: functional, cell-based; conditions: Homo sapiens
[2] = target: Eukaryotic translation initiation factor 4H (Homo sapiens, UniProt Q15056); assay: eIF4H binding inhibition – biochemical, uHTS, fluorescence polarization, translation initiation inhibitor project, primary screen (AID 2012)
BJ [3] = assay: BJ-TERT fibroblast viability loss – cell-based, RAS-independent, luminescence, dose response (AID 1933); type: functional; conditions: Homo sapiens
Estrogen receptor = Estrogen receptor (Homo sapiens, UniProt P03372);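 note: potency for inhibiting coactivator peptide recruitment to the receptor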
Sequence of Estrogen receptor (P03372 whole entry): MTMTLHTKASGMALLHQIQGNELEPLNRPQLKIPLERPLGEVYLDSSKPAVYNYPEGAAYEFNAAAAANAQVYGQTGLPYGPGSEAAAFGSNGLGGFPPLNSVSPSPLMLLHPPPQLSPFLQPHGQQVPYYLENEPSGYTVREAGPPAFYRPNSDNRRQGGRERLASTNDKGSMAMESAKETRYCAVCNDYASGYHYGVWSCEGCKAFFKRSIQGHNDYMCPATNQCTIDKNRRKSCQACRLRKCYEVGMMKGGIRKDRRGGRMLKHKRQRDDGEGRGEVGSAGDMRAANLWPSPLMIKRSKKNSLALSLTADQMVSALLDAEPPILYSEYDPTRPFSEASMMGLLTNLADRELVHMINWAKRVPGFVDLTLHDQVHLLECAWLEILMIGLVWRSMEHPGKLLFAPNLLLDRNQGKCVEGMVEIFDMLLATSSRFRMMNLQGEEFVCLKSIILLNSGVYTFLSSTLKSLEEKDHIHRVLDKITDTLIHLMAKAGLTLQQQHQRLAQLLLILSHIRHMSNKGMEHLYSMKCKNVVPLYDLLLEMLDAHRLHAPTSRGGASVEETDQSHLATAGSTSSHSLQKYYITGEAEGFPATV

[4] = target: Polyadenylate-binding protein 1 (Homo sapiens, UniProt P11940); assay: blockers of PABP interaction with poly(A) – biochemical, fluorescence polarization, […] (AID 2014)
Sequence of Polyadenylate-binding protein 1 (P11940 whole entry): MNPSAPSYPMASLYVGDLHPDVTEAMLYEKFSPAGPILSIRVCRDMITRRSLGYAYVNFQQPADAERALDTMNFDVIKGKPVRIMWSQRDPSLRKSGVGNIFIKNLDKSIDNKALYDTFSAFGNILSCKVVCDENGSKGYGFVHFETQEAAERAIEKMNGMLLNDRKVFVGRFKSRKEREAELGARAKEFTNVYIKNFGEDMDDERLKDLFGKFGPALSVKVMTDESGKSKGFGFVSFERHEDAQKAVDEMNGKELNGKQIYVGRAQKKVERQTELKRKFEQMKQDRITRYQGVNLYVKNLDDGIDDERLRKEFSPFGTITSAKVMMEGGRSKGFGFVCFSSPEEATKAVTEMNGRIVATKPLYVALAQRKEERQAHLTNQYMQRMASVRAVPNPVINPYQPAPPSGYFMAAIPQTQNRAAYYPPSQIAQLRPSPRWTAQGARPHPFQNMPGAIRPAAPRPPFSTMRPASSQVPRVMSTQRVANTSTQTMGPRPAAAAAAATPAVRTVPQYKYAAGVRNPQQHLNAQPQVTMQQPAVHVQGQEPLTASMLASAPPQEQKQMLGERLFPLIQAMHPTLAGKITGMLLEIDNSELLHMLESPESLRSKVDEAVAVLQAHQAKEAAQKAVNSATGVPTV

BJ [5] = assay: BJ-TERT-LT-ST fibroblast viability loss – cell-based, RAS-independent, luminescence, dose response (AID 1935); type: functional; conditions: Homo sapiens;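 note: BJ fibroblasts immortalized with TERT plus LT and ST oncogenes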
[6] = DRD fibroblast viability loss – cell-based, non-viral oncogenic, luminescence, dose response (AID 1934); type: functional; conditions: Homo sapiens
Estrogen receptor beta = Estrogen receptor beta (Homo sapiens, UniProt Q92731);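 note: recombinant ER-beta bound to coactivator SRC1 peptide in presence of estradiol agonist; inhibitors block coactivator peptide binding and lower the FRET signal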
Sequence of Estrogen receptor beta (Q92731 whole entry): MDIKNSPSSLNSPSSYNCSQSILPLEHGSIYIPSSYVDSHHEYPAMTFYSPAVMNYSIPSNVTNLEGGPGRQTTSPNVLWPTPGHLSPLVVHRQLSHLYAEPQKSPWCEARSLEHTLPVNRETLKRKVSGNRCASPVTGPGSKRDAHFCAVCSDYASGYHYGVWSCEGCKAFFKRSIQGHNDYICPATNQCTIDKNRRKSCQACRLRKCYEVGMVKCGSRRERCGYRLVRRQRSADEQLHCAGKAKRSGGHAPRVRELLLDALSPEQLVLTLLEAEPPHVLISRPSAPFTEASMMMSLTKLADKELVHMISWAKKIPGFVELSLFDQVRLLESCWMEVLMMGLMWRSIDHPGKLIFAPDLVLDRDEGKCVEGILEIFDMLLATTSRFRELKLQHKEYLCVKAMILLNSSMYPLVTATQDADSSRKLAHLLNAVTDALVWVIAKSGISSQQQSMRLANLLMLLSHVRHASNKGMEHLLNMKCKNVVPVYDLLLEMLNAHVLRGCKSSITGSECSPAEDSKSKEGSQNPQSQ

[7] = HEK-293T viability loss after treatment – luminescence, T-cell screen hits, cytotoxicity control for TCR NF-kB inhibitor project, dose response (AID 489026); type: functional, cell-based;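 note: cells exposed to compound about 14 hours before the viability readout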
[8] = target: T1, Delta-type opioid receptor (Homo sapiens, UniProt P41143); assay: DOR agonists, SAR follow-up, image-based (AID 2370); type: functional
T1 sequence (P41143 whole entry): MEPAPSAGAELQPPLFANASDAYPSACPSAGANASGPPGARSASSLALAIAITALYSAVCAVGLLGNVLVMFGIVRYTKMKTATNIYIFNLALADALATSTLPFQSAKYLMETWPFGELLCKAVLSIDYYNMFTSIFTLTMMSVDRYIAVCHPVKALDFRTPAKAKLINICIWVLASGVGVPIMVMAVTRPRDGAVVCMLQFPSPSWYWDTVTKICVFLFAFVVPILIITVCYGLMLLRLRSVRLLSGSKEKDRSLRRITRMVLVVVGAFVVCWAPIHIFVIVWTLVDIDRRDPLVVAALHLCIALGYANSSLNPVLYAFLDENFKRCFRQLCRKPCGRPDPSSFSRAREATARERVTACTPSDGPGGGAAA

Mu-type opioid receptor [9] = target: T2, Mu-type opioid receptor (Homo sapiens, UniProt P35372); assay: mu opioid receptor activators, image-based, SAR follow-up (AID 2352); type: functional
T2 sequence (P35372 whole entry): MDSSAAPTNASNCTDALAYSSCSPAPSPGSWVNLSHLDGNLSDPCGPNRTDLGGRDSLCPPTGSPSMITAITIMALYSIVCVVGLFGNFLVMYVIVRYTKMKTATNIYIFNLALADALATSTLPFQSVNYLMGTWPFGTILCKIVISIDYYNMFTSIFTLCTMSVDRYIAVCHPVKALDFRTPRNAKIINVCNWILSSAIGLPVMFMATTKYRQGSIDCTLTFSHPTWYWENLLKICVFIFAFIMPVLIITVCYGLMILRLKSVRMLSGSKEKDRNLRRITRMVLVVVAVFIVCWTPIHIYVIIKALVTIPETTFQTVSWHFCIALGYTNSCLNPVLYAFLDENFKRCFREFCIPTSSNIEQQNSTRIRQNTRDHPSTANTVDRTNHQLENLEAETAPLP

[10] = target: T3, Kappa-type opioid receptor (Homo sapiens, UniProt P41145); assay: kappa opioid receptor blockers, image-based, SAR follow-up (AID 2348); type: functional
T3 sequence (P41145 whole entry): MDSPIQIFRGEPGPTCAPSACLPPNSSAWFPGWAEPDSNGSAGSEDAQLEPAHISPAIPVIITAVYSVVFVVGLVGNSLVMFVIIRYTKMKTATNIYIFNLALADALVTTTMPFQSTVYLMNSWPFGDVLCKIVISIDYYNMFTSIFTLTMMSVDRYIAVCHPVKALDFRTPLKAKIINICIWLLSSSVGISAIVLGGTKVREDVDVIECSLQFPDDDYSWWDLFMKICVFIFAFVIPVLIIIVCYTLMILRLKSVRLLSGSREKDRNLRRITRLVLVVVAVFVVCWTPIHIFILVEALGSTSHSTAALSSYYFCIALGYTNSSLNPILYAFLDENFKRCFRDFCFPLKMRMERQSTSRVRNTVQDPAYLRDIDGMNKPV

[11] = target: T3, Kappa-type opioid receptor; assay: kappa opioid receptor activation potency – imaging, image-based, SAR follow-up (AID 2359); type: functional
[12] = target: T3, Kappa-type opioid receptor; type: functional
[13] = target: T3, Kappa-type opioid receptor; type: functional; remark: listed apart in the source
[14] = target: T1, Delta-type opioid receptor; assay: delta opioid receptor blockers – image-based, SAR follow-up (AID 2357); type: functional
[15] = target: T3, Kappa-type opioid receptor; assay: SAR analysis of small molecule agonists of the kappa opioid receptor via a luminescent beta-arrestin assay. [Related pubchem assays (depositor defined):AID1777, AID1786, AID1966, AID2133, AID2136, AID2348, AID2352, AID2357, AID2359, AID2370, AID2420, AID2478, AID2491, AID2492, AID2493, AID2497, AID2498, AID2500, AID449737, AID488822, AID488842]; type: functional
[16] = target: T1, Delta-type opioid receptor; assay: HTS Image-Based Screen for Agonists of the DOR Receptor. [Related pubchem assays (depositor defined):AID1777, AID1786, AID2133]; type: functional
[17] = target: T1, Delta-type opioid receptor; assay: HTS Image-Based Screen for Antagonists of the DOR Receptor. [Related pubchem assays (depositor defined):AID1777, AID1785, AID1786, AID2133]; type: functional
Mu-type opioid receptor [18] = target: T2, Mu-type opioid receptor; assay: mu opioid receptor blockers – image-based, SAR follow-up (AID 2420); type: functional;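 note: compounds added before stimulation of receptor with agonist DAMGO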
Mu-type opioid receptor [19] = target: T2, Mu-type opioid receptor; assay: HTS Image-Based Screen for Agonists of the MOR Receptor. [Related pubchem assays (depositor defined):AID1777, AID1785, AID1786, AID2133]; type: functional
[20] = Luminescence Cell-Based Dose Response HTS to Identify Inhibitors of 5'UTR Stem-Loop Driven Prion Protein mRNA Translation in H4 Neuroglioblastoma Cells. [Related pubchem assays: 1827 (Project Summary), 1813 (Primary HTS)]; type: functional
[21] = luciferase reporter signal suppression in cells – H4 neuroglioma cells, luminescence, dose response (AID 1990); type: functional, cell-based
[22] = HEK-293T cell viability reduction – luminescence, B-cell screen hits, cytotoxicity control for BCR NF-kB inhibitor project, dose response (AID 489021); type: functional, cell-based;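 note: HEK-293T cells carrying an NF-kB luciferase reporter; cells exposed to compound for about 14 hours before viability readout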
[23] = alpha-synuclein stem-loop luciferase translation blockers – H4 neuroglioma cells, luminescence, confirmation (AID 1988); type: functional, cell-based
[24] = target: T3, Kappa-type opioid receptor; assay: kappa opioid receptor blockers, cell-based, luminescence, beta-arrestin, SAR follow-up (AID 2285); type: functional
[25] = tested on: Streptococcus sp. 'group A'; assay: Streptococcus pyogenes SK(-)GAS viability under kanamycin – luminescence, BacTiterGlo, confirmation, counter-screen for streptokinase expression inhibitor project, dose response (AID 1900); type: functional, organism-based
[26] = target: T4, RNA-binding protein pos-1 (Caenorhabditis elegans, UniProt G5EF15); assay: disruptors of C. elegans POS-1 RNA interaction – biochemical, fluorescence polarization, dose response (AID 1964);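 note: purified POS-1 fused to maltose binding protein made in E. coli; potency of compounds blocking POS-1 binding to fluorescent RNA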
T4 sequence (G5EF15 whole entry): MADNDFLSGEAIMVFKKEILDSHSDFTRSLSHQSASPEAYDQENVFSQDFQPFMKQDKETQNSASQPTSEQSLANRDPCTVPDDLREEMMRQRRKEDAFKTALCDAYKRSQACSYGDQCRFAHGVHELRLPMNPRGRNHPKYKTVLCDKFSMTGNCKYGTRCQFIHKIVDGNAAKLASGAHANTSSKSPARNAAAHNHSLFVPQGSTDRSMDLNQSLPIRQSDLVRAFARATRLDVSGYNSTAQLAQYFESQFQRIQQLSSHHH

[27] = target: T5, Zinc finger protein mex-5 (Caenorhabditis elegans, UniProt Q9XUB2); assay: potency of MEX-5 RNA-binding blockers – biochemical, C. elegans, fluorescence polarization, dose response (AID 1960)
T5 sequence (Q9XUB2 whole entry): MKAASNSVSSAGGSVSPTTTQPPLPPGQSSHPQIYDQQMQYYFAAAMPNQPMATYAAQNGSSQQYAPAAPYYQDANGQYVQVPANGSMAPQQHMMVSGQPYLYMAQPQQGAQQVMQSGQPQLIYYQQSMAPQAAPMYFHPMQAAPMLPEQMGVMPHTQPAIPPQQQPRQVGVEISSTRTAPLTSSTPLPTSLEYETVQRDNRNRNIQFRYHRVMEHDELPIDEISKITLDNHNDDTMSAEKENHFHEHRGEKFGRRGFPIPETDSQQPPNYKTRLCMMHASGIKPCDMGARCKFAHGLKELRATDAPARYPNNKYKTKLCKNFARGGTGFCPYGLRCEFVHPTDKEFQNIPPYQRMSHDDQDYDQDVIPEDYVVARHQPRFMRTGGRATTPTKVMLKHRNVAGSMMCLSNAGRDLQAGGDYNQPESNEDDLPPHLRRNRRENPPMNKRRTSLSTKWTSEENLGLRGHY

[28] = target: Peroxisome proliferator-activated receptor gamma/Nuclear receptor coactivator 3 (Homo sapiens, UniProt P37231); type: functional;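 note: agonist potency for raising coactivator recruitment to the receptor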
Streptokinase A = target: T6, Streptokinase A (Streptococcus pyogenes serotype M1, UniProt P10520); assay: viability-normalized secreted streptokinase activity reduction – plasminogen activation absorbance, OD405, dose response (AID 1914); type: functional, Streptococcus pyogenes M1 GAS;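 note: secreted streptokinase activity via plasminogen activation per viability signal from cell pellet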
T6 sequence (P10520 whole entry): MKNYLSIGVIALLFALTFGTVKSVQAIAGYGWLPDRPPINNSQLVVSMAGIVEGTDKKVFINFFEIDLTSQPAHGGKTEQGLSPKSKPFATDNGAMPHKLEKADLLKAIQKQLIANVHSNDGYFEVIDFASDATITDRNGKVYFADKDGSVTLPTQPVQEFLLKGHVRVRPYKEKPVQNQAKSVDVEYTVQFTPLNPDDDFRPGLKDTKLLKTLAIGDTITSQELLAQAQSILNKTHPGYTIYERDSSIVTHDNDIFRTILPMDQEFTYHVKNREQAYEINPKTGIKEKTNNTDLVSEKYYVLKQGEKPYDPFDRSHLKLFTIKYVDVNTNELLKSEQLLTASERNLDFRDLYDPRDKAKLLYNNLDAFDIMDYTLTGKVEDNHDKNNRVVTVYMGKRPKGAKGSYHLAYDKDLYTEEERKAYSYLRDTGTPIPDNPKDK

[29] = target: Peroxisome proliferator-activated receptor gamma/Nuclear receptor coactivator 2 (Homo sapiens, UniProt P37231); type: functional;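 note: agonist potency for raising coactivator recruitment to the receptor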
Streptococcus = assay: GAS UMAA2166 growth inhibition – luminescence, BacTiterGlo, counter-screen for streptokinase expression inhibitor project, dose response (AID 1915); type: functional, organism-based;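 note: potency for reduction of bacterial viability or growth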
[30] = target: Peroxisome proliferator-activated receptor gamma/Nuclear receptor coactivator 1 (Homo sapiens, UniProt P37231); type: functional;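 note: agonist potency as compounds enhance coactivator SRC-1 recruitment to PPARgamma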
[31] = target: Scavenger receptor class B member 1 (Mus musculus, UniProt Q61009); assay: mouse SR-BI DiI-HDL uptake blockers – ldlA[mSR-BI] cells, fluorescence, cherry pick, dose response (AID 493194); type: functional, cell-based;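 note: cellular uptake of fluorescent DiI-labeled HDL measured as cell fluorescence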
Sequence of Scavenger receptor class B member 1 (Q61009 whole entry): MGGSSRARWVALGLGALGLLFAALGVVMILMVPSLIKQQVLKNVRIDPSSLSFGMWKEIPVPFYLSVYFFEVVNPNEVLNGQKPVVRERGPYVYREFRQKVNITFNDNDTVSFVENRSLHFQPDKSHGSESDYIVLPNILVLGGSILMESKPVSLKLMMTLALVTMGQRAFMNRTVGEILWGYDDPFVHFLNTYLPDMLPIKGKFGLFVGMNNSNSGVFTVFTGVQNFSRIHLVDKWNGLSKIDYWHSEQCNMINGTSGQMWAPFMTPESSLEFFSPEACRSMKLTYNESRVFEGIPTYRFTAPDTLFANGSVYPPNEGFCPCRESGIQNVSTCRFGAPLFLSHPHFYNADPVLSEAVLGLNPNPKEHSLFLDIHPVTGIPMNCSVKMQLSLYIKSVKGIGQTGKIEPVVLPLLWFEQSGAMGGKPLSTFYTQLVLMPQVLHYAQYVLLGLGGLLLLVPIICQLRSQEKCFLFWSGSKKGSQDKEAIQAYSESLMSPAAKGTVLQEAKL

[32] = target: Acyl-homoserine lactone acylase PvdQ (Pseudomonas aeruginosa (strain LESB58), UniProt Q9I194); assay: PvdQ acylase enzyme activity blockers – biochemical, fluorescence, plate reader and imaging, cherry-picks, dose response (AID 493231)
Sequence of Acyl-homoserine lactone acylase PvdQ (Q9I194 24-193 limits assumed): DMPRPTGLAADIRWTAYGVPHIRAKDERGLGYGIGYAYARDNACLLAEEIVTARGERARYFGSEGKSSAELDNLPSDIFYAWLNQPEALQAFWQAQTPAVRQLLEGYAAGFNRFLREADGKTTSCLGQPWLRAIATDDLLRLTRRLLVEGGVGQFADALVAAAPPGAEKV
Sequence of Acyl-homoserine lactone acylase PvdQ (Q9I194 217-762 limits assumed): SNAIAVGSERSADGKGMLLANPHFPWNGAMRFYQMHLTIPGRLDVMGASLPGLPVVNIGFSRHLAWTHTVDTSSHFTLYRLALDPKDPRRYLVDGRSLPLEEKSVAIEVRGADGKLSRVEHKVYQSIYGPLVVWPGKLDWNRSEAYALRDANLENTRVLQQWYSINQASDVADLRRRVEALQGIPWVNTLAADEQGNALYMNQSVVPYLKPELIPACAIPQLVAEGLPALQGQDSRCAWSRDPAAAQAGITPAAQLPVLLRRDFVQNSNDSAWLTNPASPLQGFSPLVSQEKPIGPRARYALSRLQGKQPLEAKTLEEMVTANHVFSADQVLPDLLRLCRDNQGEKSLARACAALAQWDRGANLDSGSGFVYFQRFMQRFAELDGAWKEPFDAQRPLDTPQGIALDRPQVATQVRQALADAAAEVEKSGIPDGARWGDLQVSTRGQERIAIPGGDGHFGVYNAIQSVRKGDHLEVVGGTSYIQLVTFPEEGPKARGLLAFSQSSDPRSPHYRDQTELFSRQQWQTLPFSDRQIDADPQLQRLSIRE

C/C=C/COC(=O)c1[nH]c2c(c1C)C(=O)CC(c1ccco1)C2 (configuration not stated)
EC50 (BJ [1]): 2.76 µM (active)
IC50 [2]: 21.7 µM (active)
EC50 (BJ [3]): 2.84 µM (inconclusive)
IC50 (Estrogen receptor): 24.7 µM (active)
IC50 [4]: 45.8 µM (active)
EC50 (BJ [5]): 4.74 µM (inconclusive)
EC50 [6]: 2.76 µM (active)
IC50 (Estrogen receptor beta): > 50 µM (not active)
IC50 [7]: > 80 µM (inactive)

COc1ccc(CN(CC2CCCO2)C(=O)CN2C(=O)COc3ccccc32)cc1OC (configuration not stated)
EC50 [8]: > 32 µM (inactive)
EC50 (Mu-type opioid receptor [9]): > 32 µM (inactive)
IC50 [10]: > 32 µM (inactive)
EC50 [11]: 4.88 µM (active)
EC50 [12]: 11.5 µM
EC50 [13]: 11 µM
IC50 [14]: > 32 µM (inactive)
EC50 [15]: > 10 µM (inactive)
EC50 [16]: > 32 µM (inactive)
IC50 [17]: > 32 µM (inactive)
IC50 (Mu-type opioid receptor [18]): > 32 µM (inactive)
EC50 (Mu-type opioid receptor [19]): > 32 µM (inactive)

Cc1ccc(C(=O)NNC(=O)CCCN2C(=O)/C(=C/c3ccccc3Cl)SC2=S)cc1
EC50 [20]: > 120 µM (not active)
EC50 [21]: 10.8 µM (active)
IC50 [22]: > 80 µM (inactive)
EC50 [23]: 14 µM (active)

Oc1c(C=Nc2cccc3cccnc23)sc2ccccc12
EC50 [8]: > 32 µM (inactive)
EC50 (Mu-type opioid receptor [9]): > 32 µM (inactive)
IC50 [10]: 0.533 µM (active)
EC50 [11]: > 32 µM (inactive)
IC50 [14]: 1.01 µM (active)
IC50 [24]: 8.77 µM (active)
IC50 (Mu-type opioid receptor [18]): 0.897 µM (active)

Cc1cc(C)c2c(c1)NC(c1cc3c(cc1Br)OCO3)C1CC=CC21 (configuration not stated)
EC50 [25]: 5.11 µM (active)
EC50 [26]: > 300 µM (not active)
EC50 [27]: > 300 µM (not active)
EC50 [28]: > 79.4 µM (not active)
EC50 (Streptokinase A): > 150 µM (not active)
EC50 [29]: > 79.4 µM (not active)
EC50 (Streptococcus): 114 µM (active)
EC50 [30]: > 79.4 µM (not active)
AC50 [31]: 19 µM (active)

O=[N+]([O-])c1ccc(Sc2ccccc2Cl)nc1
AC50 [32]: 33.2 µM (active)
